Data taken from PubChem BioAssay (NCI).
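Exposure lasted 48 hours, with cells grown in 96-well plates and compounds tested at five concentrations. Here, GI50 denotes the concentration required for 50% inhibition of growth. At the TGI there is no net growth.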

Legend:
Experiment in all cases: DTP human tumour cell line panel, 48 h
A549 NSCLC = tested on: A549 NSCLC
SNB-75 CNS = tested on: SNB-75 CNS
NCI-H460 lung = tested on: NCI-H460 lung
HCT-116 colon = tested on: HCT-116 colon
LOX IMVI melanoma = tested on: LOX IMVI melanoma
IGROV1 ovarian = tested on: IGROV1 ovarian
OVCAR-8 ovarian = tested on: OVCAR-8 ovarian
COLO 205 colon = tested on: COLO 205 colon
SK-OV-3 ovarian = tested on: SK-OV-3 ovarian
CAKI-1 renal = tested on: CAKI-1 renal
ACHN renal = tested on: ACHN renal

Work on CSc1nc2c(ncn2C2OCC(O)C(O)C2O)c(=O)n1C (configuration not stated) yielded a TGI (A549 NSCLC) greater than 100 µM, a TGI (SNB-75 CNS) greater than 100 µM and a TGI (NCI-H460 lung) greater than 100 µM. For the same molecule, the TGI (HCT-116 colon) was greater than 100 µM, the TGI (LOX IMVI melanoma) was greater than 100 µM and the TGI (IGROV1 ovarian) was greater than 100 µM. For the same molecule, the TGI (OVCAR-8 ovarian) was greater than 100 µM, the TGI (COLO 205 colon) was greater than 100 µM and the TGI (SK-OV-3 ovarian) was greater than 100 µM.

O=C(Nc1cccc2c1[nH]c1c(-c3ccccc3)nccc12)c1ccccc1[N+](=O)[O-] gave a TGI (A549 NSCLC) greater than 100 µM, a TGI (CAKI-1 renal) of 70.4 µM and a TGI (SNB-75 CNS) greater than 100 µM. For the same molecule, the TGI (NCI-H460 lung) was 78.1 µM, the TGI (ACHN renal) was greater than 100 µM and the TGI (HCT-116 colon) was greater than 100 µM. The TGI (LOX IMVI melanoma) was greater than 100 µM, the TGI (IGROV1 ovarian) was greater than 100 µM and the TGI (OVCAR-8 ovarian) was greater than 100 µM. The TGI (COLO 205 colon) was greater than 100 µM.

Molecule CN1CCN(Cc2ccc(NC(=O)c3cccc(C#Cc4cnc(N)c5ncccc45)c3F)cc2C(F)(F)F)CC1 has a GI50 (A549 NSCLC) of 747 nM, a TGI (A549 NSCLC) of 1.58 µM and a GI50 (CAKI-1 renal) of 530 nM. The TGI (CAKI-1 renal) was 6.34 µM, the GI50 (SNB-75 CNS) was 1590 nM and the TGI (SNB-75 CNS) was 7.48 µM. It also gave a GI50 (NCI-H460 lung) of 561 nM, a TGI (NCI-H460 lung) of 1.37 µM and a GI50 (ACHN renal) of 477 nM. For the same molecule, the TGI (ACHN renal) was 1.09 µM, the GI50 (IGROV1 ovarian) was 476 nM and the TGI (IGROV1 ovarian) was 1.31 µM. The GI50 (OVCAR-8 ovarian) was 828 nM, the TGI (OVCAR-8 ovarian) was 1.78 µM and the GI50 (COLO 205 colon) was 1170 nM. The TGI (COLO 205 colon) was 6.07 µM, the GI50 (SK-OV-3 ovarian) was 1390 nM and the TGI (SK-OV-3 ovarian) was 7.46 µM.

In the case of O=C1C=CC(=O)c2c1ccc1c3ccccc3n(-c3ccccc3[N+](=O)[O-])c21, the TGI (A549 NSCLC) is reported as greater than 64.8 µM, the TGI (CAKI-1 renal) is reported as 3.64 µM and the TGI (SNB-75 CNS) is reported as 35.7 µM. For the same molecule, the TGI (NCI-H460 lung) was greater than 100 µM, the TGI (ACHN renal) was 3.46 µM and the TGI (HCT-116 colon) was greater than 25.3 µM. For the same molecule, the TGI (LOX IMVI melanoma) was 4.76 µM, the TGI (IGROV1 ovarian) was 4.9 µM and the TGI (COLO 205 colon) was 4.35 µM. For the same molecule, the TGI (SK-OV-3 ovarian) was 33 µM.

In the case of COc1ccc2[nH]c3c(C)c4ccnc(NCCCN(C)CCCNc5ccc6ncn7c8ccccc8c(=O)c5c67)c4c(C)c3c2c1, the TGI (A549 NSCLC) is reported as 1.48 µM, the TGI (CAKI-1 renal) is reported as 0.561 µM and the TGI (SNB-75 CNS) is reported as 7.38 µM. The TGI (NCI-H460 lung) was 0.682 µM, the TGI (ACHN renal) was 0.918 µM and the TGI (HCT-116 colon) was 3.01 µM. For the same molecule, the TGI (LOX IMVI melanoma) was 0.606 µM, the TGI (IGROV1 ovarian) was 1.32 µM and the TGI (OVCAR-8 ovarian) was 7.16 µM. It also gave a TGI (COLO 205 colon) of 4.36 µM and a TGI (SK-OV-3 ovarian) of 6.8 µM.

COc1cccc(NC(=O)C(=O)C(C(=O)c2ccccc2F)C2OC(=O)c3ccccc32)c1 (configuration not stated) was tested, and the TGI (A549 NSCLC) was greater than 100 µM, the TGI (CAKI-1 renal) was greater than 100 µM and the TGI (SNB-75 CNS) was 70.9 µM. For the same molecule, the TGI (NCI-H460 lung) was greater than 100 µM, the TGI (ACHN renal) was greater than 100 µM and the TGI (HCT-116 colon) was 46.1 µM. It also gave a TGI (LOX IMVI melanoma) of 63.3 µM, a TGI (IGROV1 ovarian) greater than 100 µM and a TGI (OVCAR-8 ovarian) of 60.9 µM. It also gave a TGI (COLO 205 colon) of 39.5 µM and a TGI (SK-OV-3 ovarian) greater than 100 µM.

COc1cc2c(cc1OC)C(=O)/C(=C/c1cc(OC)c(OC)c(OC)c1)C2 showed a TGI (CAKI-1 renal) greater than 100 µM, a TGI (SNB-75 CNS) greater than 100 µM and a TGI (NCI-H460 lung) greater than 100 µM. It also gave a TGI (IGROV1 ovarian) greater than 100 µM, a TGI (OVCAR-8 ovarian) greater than 100 µM and a TGI (COLO 205 colon) greater than 100 µM. It also gave a TGI (SK-OV-3 ovarian) greater than 100 µM.

In the case of O=C1C(Cl)N(c2cccc([N+](=O)[O-])c2)C1c1c[nH]c2ccccc12 (configuration not stated), the TGI (A549 NSCLC) is reported as 56.3 µM, the TGI (SNB-75 CNS) is reported as 47.2 µM and the TGI (NCI-H460 lung) is reported as 35.4 µM. The TGI (HCT-116 colon) was 44.6 µM, the TGI (IGROV1 ovarian) was 69.8 µM and the TGI (OVCAR-8 ovarian) was 60.4 µM. For the same molecule, the TGI (COLO 205 colon) was 41.8 µM and the TGI (SK-OV-3 ovarian) was 38 µM.

Work on COC1(O)c2cccc(Cl)c2C(=O)N1C1(C(N)=O)CCCCC1 (configuration not stated) yielded a TGI (A549 NSCLC) greater than 100 µM, a TGI (CAKI-1 renal) greater than 100 µM and a TGI (SNB-75 CNS) greater than 100 µM. For the same molecule, the TGI (NCI-H460 lung) was greater than 100 µM, the TGI (HCT-116 colon) was greater than 100 µM and the TGI (LOX IMVI melanoma) was greater than 100 µM. It also gave a TGI (IGROV1 ovarian) greater than 100 µM, a TGI (OVCAR-8 ovarian) greater than 100 µM and a TGI (COLO 205 colon) greater than 100 µM. It also gave a TGI (SK-OV-3 ovarian) greater than 100 µM.

In the case of NC12CCC(CC1=O)C2 (configuration not stated), the TGI (A549 NSCLC) is reported as greater than 100 µM, the TGI (SNB-75 CNS) is reported as greater than 100 µM and the TGI (ACHN renal) is reported as greater than 100 µM. The TGI (HCT-116 colon) was greater than 100 µM, the TGI (LOX IMVI melanoma) was greater than 100 µM and the TGI (IGROV1 ovarian) was greater than 100 µM. For the same molecule, the TGI (OVCAR-8 ovarian) was greater than 100 µM, the TGI (COLO 205 colon) was greater than 100 µM and the TGI (SK-OV-3 ovarian) was greater than 100 µM.

For O=Cc1ccc(CCl)cc1, the TGI (A549 NSCLC) was greater than 100 µM, the TGI (NCI-H460 lung) was 37.1 µM and the TGI (ACHN renal) was 54 µM. For the same molecule, the TGI (HCT-116 colon) was 29.1 µM, the TGI (LOX IMVI melanoma) was 28 µM and the TGI (IGROV1 ovarian) was 46.3 µM. The TGI (OVCAR-8 ovarian) was 35.2 µM, the TGI (COLO 205 colon) was greater than 100 µM and the TGI (SK-OV-3 ovarian) was 51.7 µM.
